Test results published in patent publication US6160004A, “C-10 carbon-substituted artemisinin-like trioxane compounds having antimalarial, antiproliferative and antitumor activities” (priority 1998, dated 2000).

How the values were obtained:
Type in all cases: cell-based
HL-60(TB) = assay: cells; conditions: Homo sapiens
A549/ATCC = assay: NCI 60 cell line panel screening assay (SRB), A549/ATCC; conditions: Homo sapiens, non-small cell lung cancer, 48 h, read-out: Log10 GI50 (converted)
EKVX = assay: NCI 60 cell line panel screening assay (SRB), EKVX; conditions: Homo sapiens, non-small cell lung cancer, 48 h, read-out: Log10 GI50 (converted)
HOP-62 = assay: cells; conditions: Homo sapiens, HOP-62, non-small cell lung cancer, 48 h
NCI-H460 = assay: cells; conditions: Homo sapiens; NCI-H460, non-small cell lung cancer, 48 h; read-out: Log10 GI50 (converted)
NCI-H522 = assay: cells; conditions: Homo sapiens
COLO 205 = assay: NCI 60 cell line panel screening assay (SRB), COLO 205; conditions: Homo sapiens
HCT-116 = assay: cells; conditions: Homo sapiens, HCT-116, 48 h
HCT-15 = assay: cells; conditions: Homo sapiens, HCT-15, colon cancer, 48 h
KM12 = assay: cells; conditions: Homo sapiens, KM12, colon cancer, 48 h
SW-620 = assay: NCI 60 cell line panel screening assay (SRB), SW-620; conditions: Homo sapiens
SF-539 = assay: cells; conditions: Homo sapiens, SF-539, CNS cancer, 48 h
SNB-75 = assay: cells; conditions: Homo sapiens; SNB-75, CNS cancer, 48 h; read-out: Log10 LC50 (converted)
LOX IMVI = assay: cells; conditions: Homo sapiens, melanoma, 48 h
MALME-3M = assay: cells; conditions: Homo sapiens, 48 h
SK-MEL-2 = assay: cells; conditions: Homo sapiens, SK-MEL-2, melanoma, 48 h
SK-MEL-28 = assay: cells; conditions: Homo sapiens, SK-MEL-28, melanoma, 48 h
OVCAR-4 = assay: cells; conditions: Homo sapiens
OVCAR-5 = assay: cells; conditions: Homo sapiens
OVCAR-8 = assay: cells; conditions: Homo sapiens
786-0 = assay: cells; conditions: Homo sapiens, 786-0, renal cancer, 48 h
ACHN = assay: NCI 60 cell line panel screening assay (SRB), ACHN; conditions: Homo sapiens, renal cancer, 48 h
RXF 393 = assay: cells; conditions: Homo sapiens, RXF 393, renal cancer, 48 h
UO-31 = assay: NCI 60 cell line panel screening assay (SRB), UO-31; conditions: Homo sapiens, UO-31, renal cancer, 48 h
MCF7/ADR-RES = assay: cells; conditions: Homo sapiens, MCF7/ADR-RES, breast cancer, 48 h
MDA-MB231/ATCC = assay: cells; conditions: Homo sapiens, MDA-MB-231, breast cancer, 48 h
HS 578T = assay: cells; conditions: Homo sapiens, HS 578T, breast cancer, 48 h
MDA-MB435 = assay: NCI 60 cell line panel screening assay (SRB), MDA-MB435; conditions: Homo sapiens
[1] = test system: chloroquine-sensitive P. falciparum (NF54); assay: In vitro antimalarial activity ([3H]hypoxanthine incorporation)
[2] = read-out: Log10 GI50 (converted)
[3] = read-out: Log10 LC50 (converted)

SMILES: CC1CCC2C(C)C(CC(=O)c3cccc(C(=O)CC4OC5OC6(C)CCC7C(C)CCC(C4C)C57OO6)c3)OC3OC4(C)CCC1C32OO4 (centres unmarked) [Dimer 39]
- CC50 (HL-60(TB); HL-60, 48 h, read-out: Log10 LC50 (converted)): > 100 µM
- GI50 (HL-60(TB); HL-60(TB), leukemia, 48 h, read-out: Log10 GI50 (converted)): > 100 µM
- IC (TGI) (HL-60(TB); HL-60(TB), leukemia, 48 h, read-out: Log10 TGI): > 100 µM
- GI50 (A549/ATCC): > 100 µM
- GI50 (EKVX): > 100 µM
- GI50 (HOP-62; [2]): > 100 µM
- LC50 (HOP-62; [3]): > 100 µM
- GI50 (NCI-H460): > 100 µM
- CC50 (NCI-H522; NCI-H522, 48 h, read-out: Log10 LC50 (converted)): > 100 µM
- GI50 (NCI-H522; NCI-H522, non-small cell lung cancer, 48 h, read-out: Log10 GI50 (converted)): > 100 µM
- CC50 (COLO 205; COLO 205, 48 h, read-out: Log10 LC50 (converted)): > 100 µM
- GI50 (COLO 205; COLO 205, colon cancer, 48 h, read-out: Log10 GI50 (converted)): > 100 µM
- GI50 (HCT-116; [2]): > 100 µM
- CC50 (HCT-116; [3]): > 100 µM
- GI50 (HCT-15; [2]): > 100 µM
- CC50 (HCT-15; [3]): > 100 µM
- GI50 (KM12; [2]): > 100 µM
- CC50 (KM12; [3]): > 100 µM
- GI50 (SW-620; SW-620, 48 h, read-out: Log10 GI50 (converted)): > 100 µM
- CC50 (SW-620; SW-620, colon cancer, 48 h, read-out: Log10 LC50 (converted)): > 100 µM
- IC (TGI) (SW-620; SW-620, colon cancer, 48 h, read-out: Log10 TGI): > 100 µM
- GI50 (SF-539; [2]): > 100 µM
- CC50 (SF-539; [3]): > 100 µM
- CC50 (SNB-75): > 100 µM
- GI50 (LOX IMVI; [2]): > 100 µM
- CC50 (LOX IMVI; [3]): > 100 µM
- IC (TGI) (LOX IMVI; read-out: Log10 TGI (converted)): > 100 µM
- IC (TGI) (MALME-3M; Malme-3M, read-out: Log10 TGI): > 100 µM
- GI50 (MALME-3M; MALME-3M, melanoma, read-out: Log10 GI50 (converted)): > 100 µM
- LC50 (50% lethal concentration) (MALME-3M; MALME-3M, melanoma, read-out: Log10 LC50 (converted)): > 100 µM
- GI50 (SK-MEL-2; [2]): > 100 µM
- CC50 (SK-MEL-2; [3]): > 100 µM
- IC (TGI) (SK-MEL-2; read-out: Log10 TGI): > 100 µM
- GI50 (SK-MEL-28; [2]): > 100 µM
- CC50 (SK-MEL-28; [3]): > 100 µM
- IC (TGI) (SK-MEL-28; read-out: Log10 TGI): > 100 µM
- IC (TGI) (OVCAR-4; OVCAR-4, 48 h, read-out: Log10 TGI): > 100 µM
- GI50 (OVCAR-4; OVCAR-4, ovarian cancer, 48 h, read-out: Log10 GI50 (converted)): > 100 µM
- CC50 (OVCAR-4; OVCAR-4, ovarian cancer, 48 h, read-out: Log10 LC50 (converted)): > 100 µM
- IC (TGI) (OVCAR-5; OVCAR-5, 48 h, read-out: Log10 TGI): > 100 µM
- CC50 (OVCAR-5; OVCAR-5, ovarian cancer, 48 h, read-out: Log10 LC50 (converted)): > 100 µM
- IC (TGI) (OVCAR-8; OVCAR-8, 48 h, read-out: Log10 TGI): > 100 µM
- GI50 (OVCAR-8; OVCAR-8, ovarian cancer, 48 h, read-out: Log10 GI50 (converted)): > 100 µM
- CC50 (OVCAR-8; OVCAR-8, ovarian cancer, 48 h, read-out: Log10 LC50 (converted)): > 100 µM
- GI50 (786-0; [2]): > 100 µM
- CC50 (786-0; [3]): > 100 µM
- IC (TGI) (786-0; read-out: Log10 TGI): > 100 µM
- GI50 (ACHN; [2]): > 100 µM
- IC (TGI) (ACHN; read-out: Log10 TGI): > 100 µM
- GI50 (RXF 393; [2]): > 100 µM
- CC50 (RXF 393; [3]): > 100 µM
- IC (TGI) (RXF 393; read-out: Log10 TGI): > 100 µM
- GI50 (UO-31; [2]): > 100 µM
- CC50 (UO-31; [3]): > 100 µM
- IC (TGI) (UO-31; read-out: Log10 TGI): > 100 µM
- GI50 (MCF7/ADR-RES; [2]): > 100 µM
- CC50 (MCF7/ADR-RES; [3]): > 100 µM
- GI50 (MDA-MB231/ATCC; [2]): > 100 µM
- CC50 (MDA-MB231/ATCC; [3]): > 100 µM
- GI50 (HS 578T; [2]): > 100 µM
- CC50 (HS 578T; [3]): > 100 µM
- CC50 (MDA-MB435; MDA-MB-435, 48 h, read-out: Log10 LC50 (converted)): > 100 µM
- GI50 (MDA-MB435; MDA-MB-435, printed MDA-MBA35, breast cancer, 48 h, read-out: Log10 GI50 (converted)): > 100 µM
- in vitro antimalarial potency relative to artemisinin ([1]; P. falciparum NF54): more potent than artemisinin
- IC50 ([1]; Plasmodium falciparum, chloroquine-sensitive P. falciparum NF54, in vitro): 0.0019 µM
